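Assay format: 96-well plates, 48-hour exposure. The concentration for 50% growth inhibition is given as GI50. Definition used: TGI = concentration required for complete inhibition of growth.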
Experiments:
Experiment in all cases: inhibition of tumour cell growth, NCI panel, 48 h
[1] = test system: HCT-116 colon
[2] = test system: HT29 colon
[3] = test system: MOLT-4 leukemia
[4] = test system: NCI/ADR-RES ovarian
[5] = test system: OVCAR-5 ovarian
[6] = test system: PC-3 prostate
[7] = test system: RXF 393 renal
[8] = test system: SK-OV-3 ovarian
[9] = test system: SN12C renal
[10] = test system: TK-10 renal

Structure (SMILES) | GI50 [1] | TGI [1] | GI50 [2] | TGI [2] | GI50 [3] | TGI [3] | GI50 [4] | TGI [4] | GI50 [5] | TGI [5] | GI50 [6] | TGI [6] | GI50 [7] | TGI [7] | GI50 [8] | TGI [8] | GI50 [9] | TGI [9] | GI50 [10] | TGI [10]
CC(=O)O[C@H]([C@H](OC(C)=O)[C@H](C)OC(C)=O)[C@@H](/C=C/[C@H]1CC=CC(=O)O1)OC(C)=O | 33 µM | > 100 µM | 55.8 µM | > 100 µM | 72.7 µM | > 100 µM | > 100 µM | > 100 µM | > 100 µM | > 100 µM | 17.6 µM | > 100 µM | > 100000 nM | > 100 µM | > 100 µM | > 100 µM | 83.3 µM | > 100 µM | > 100 µM | > 100 µM
CN1CCN(C(=O)/C=C/c2ccc([N+](=O)[O-])o2)CC1 | 10.5 µM | 22.4 µM | 9.81 µM | 37 µM | 10.7 µM | 93.4 µM | 14.9 µM | 52.5 µM | 22.3 µM | 39.1 µM | 21.6 µM | > 100 µM | 2880 nM | 12.4 µM | 29 µM | > 100 µM | 13.8 µM | 27.9 µM | 31.7 µM | > 100 µM
O=C1C[C@@H]2OCC=C3C[N+]4([O-])CC[C@]56c7ccccc7N1[C@H]5[C@H]2[C@H]3C[C@@H]64 (stereo not given in full) | > 100 µM | > 100 µM | > 100 µM | > 100 µM | > 100 µM | > 100 µM | > 100 µM | > 100 µM | > 100 µM | > 100 µM | > 100 µM | > 100 µM | > 100000 nM | > 100 µM | > 100 µM | > 100 µM | > 100 µM | > 100 µM | > 100 µM | > 100 µM
COc1cc(NC(=O)COc2ccccc2)c(C(N)=O)cc1OC | 0.62 µM | > 100 µM | 0.437 µM | > 100 µM | 2.91 µM | > 100 µM | 0.487 µM | 11.7 µM | 15 µM | > 100 µM | 2.23 µM | > 100 µM | 1690 nM | 9.52 µM | 3.58 µM | 22.7 µM | 3.12 µM | > 100 µM | 14.4 µM | > 100 µM
COc1ccc(Cn2c(Br)c3c(c2-c2cc(OC)c(OC)c(OC)c2)CCc2sc(N)nc2-3)cc1 | 1.4 µM | > 100 µM | 0.731 µM | 5.48 µM | 1.51 µM | > 29.7 µM | 0.866 µM | 36.3 µM | 4.26 µM | > 100 µM | 1.57 µM | > 100 µM | 448 nM | 14.8 µM | 1.2 µM | 8.04 µM | 2.15 µM | 14.2 µM | 1.1 µM | 6.96 µM

— PubChem BioAssay (NCI)
